Measured values: publication PMC12202533, “Mechanistic Insights and Anti-cancer Activity of 2H-benzo[b][1,4]oxazin-3(4H)-one Linked 1,2,3-Triazoles in Human Cancer Cells” (Frontiers in Pharmacology, 2025)
Like-named read-outs stand apart in the source and are kept apart here.

Tests used:
[1] = system: A549 lung cancer cell; design: method as in Zhou et al. (2014); details: by inducing autophagy and cell cycle arrest; ref Zhou et al. (2014); cited from earlier work
[2] = system: A549; assay: CCK-8 cell viability assay and IC50 measurement; type: cell-based, human; details: for IC50 / viability at 40 µM / inhibition at 40 µM: Homo sapiens; for viability at 40 µM / inhibition at 40 µM: A549, 40 μM, 48 h; for viability at 40 µM: CCK-8, read-out: Cell viability (100%), 40 μM, 48 h, A549; for inhibition at 40 µM: read-out: inhibition rate
Procedure: (§1) In order to investigate the anticancer activity of new synthetic 1,4-benzoxazinone-linked 1,2,3-triazole compounds, we chose several cancer cell lines, including A549 (lung), Huh7 (liver), MCF-7 (breast), HCT-116 (colon), and SKOV3 (ovary), and measured cell viability using the CCK-8 assay. Cells were exposed to 40 μM of the compounds for 48 h, and then cell viability was determined. […] In addition, we used the reference drug gefitinib as a positive control and measured its cell viability on different cell lines. […] We used BEAS-2B cells as a normal cell line to determine the toxic effects of these compounds on normal cells. […] Furthermore, we evaluated the IC50 of these compounds in A549.
(§2) Human cancer cell lines A549, Huh7, MCF-7, HCT-116, and SKOV3 were obtained from ATCC. The cells were cultured in DMEM or RPMI 1640 medium supplemented with 10% FBS and 1% penicillin/streptomycin and incubated at 37°C in a CO2-humidified atmosphere.
(§3) Cells were cultured in DMEM or RPMI 1640 medium containing 10% FBS and 1% penicillin/streptomycin at 37°C and 5% CO2. The CCK-8 assay was performed on several human cancer cell lines, including A549, Huh7, MCF-7, HCT-116, and SKOV3, according to the manufacturer’s instructions. Cells were plated at a density of 5 × 10^3 cells per well in a 96-well plate. After 24 h of incubation, cells were treated with 40 μM compounds for 48 h. Cell viability was assessed by adding 10 μL of CCK-8 reagent, dissolved in the cell culture medium, and incubating for 1 h. Absorbance was measured at 450 nm using a microplate reader. IC50 values were determined using a dose-response curve with six concentrations (0, 10, 20, 40, 80, and 160 μM), and IC50 values were calculated using GraphPad Prism software.

[3] = CCK-8 cell viability assay, normal cell line; type: cell-based; details: human, BEAS-2B cells (normal cell line), BEAS-2B normal cell line, read-out: Cell viability (100%), 40 μM, 48 h, BEAS-2B
Procedure: as §1, §3

[4] = system: SKOV3; assay: CCK-8 cell viability assay; type: cell-based; details: Homo sapiens, SK-OV-3, SKOV3, 40 μM, 48 h, read-out: Cell viability (100%), 40 μM, 48 h, SKOV3
Procedure: as §1, §2, §3

[5] = system: Huh7; assay: CCK-8 cell viability assay; type: cell-based; details: Homo sapiens, Huh-7, Huh7, 40 μM, 48 h, read-out: Cell viability (100%), 40 μM, 48 h, Huh7
Procedure: as §1, §2, §3

[6] = system: HCT-116; assay: CCK-8 cell viability assay; type: cell-based; details: Homo sapiens, HCT-116, 40 μM, 48 h, read-out: Cell viability (100%), 40 μM, 48 h, HCT-116
Procedure: as §1, §2, §3

[7] = system: MCF-7; assay: CCK-8 cell viability assay; type: cell-based; details: Homo sapiens, MCF7, MCF-7, 40 μM, 48 h, read-out: Cell viability (100%), 40 μM, 48 h, MCF-7
Procedure: as §1, §2, §3

[8] = system: A549 cells; design: method as in Bollu et al., 2017; details: ref Bollu et al., 2017; cited from earlier work
[9] = system: HepG2 cells; design: method as in Xie et al., 2023; details: ref Xie et al., 2023, cited from earlier work
[10] = A549, 48 h, read-out: IC50 48 h
[11] = A549, 72 h, read-out: IC50 72 h

## COc1cc(/C=C/C(=O)c2ccc3c(c2)NC(=O)CO3)cc(OC)c1 [compound 4]
[1]
  A549 lung cancer cell growth: effectively suppressed

## O=C1COc2ccc(NC(=O)c3cccc(-c4cn(-c5ccccc5Cl)nn4)c3)cc2N1 [Compound 14e]
[2]; [10]
  IC50: 29.1 ± 1.15 µM
[2]; [11]
  IC50: 27.8 ± 0.96 µM
[2]
  viability at 40 µM: 46.5 ± 2.68%
  inhibition at 40 µM: > 50%
[3]
  viability at 48 h, 40 µM: 97.5 ± 2.69%
[4]
  viability at 40 µM: 86.5 ± 4.84%
[5]
  viability at 40 µM: 134.1 ± 0.79%
[6]
  viability at 40 µM: 118 ± 5.23%
[7]
  viability at 40 µM: 127 ± 1.89%

## O=C1COc2ccc(NC(=O)c3cccc(-c4cn(Cc5ccccc5F)nn4)c3)cc2N1 [Compound 13j]
[2]; [10]
  IC50: 43.5 ± 5.67 µM
[2]; [11]
  IC50: 35.3 ± 5.81 µM
[2]
  viability at 40 µM: 53.6 ± 2.43%
[3]
  viability at 48 h, 40 µM: 125.8 ± 0.46%
[4]
  viability at 40 µM: 92.73 ± 0.81%
[5]
  viability at 40 µM: 97.2 ± 2.59%
[6]
  viability at 40 µM: 60.3 ± 1.3%
[7]
  viability at 40 µM: 107 ± 2.73%

## O=C1COc2ccc(NC(=O)c3cccc(-c4cn(Cc5ccc(I)cc5)nn4)c3)cc2N1 [Compound 13s]
[2]
  viability at 40 µM: 128.8 ± 1.19%
[3]
  viability at 48 h, 40 µM: 94.7 ± 1.56%
[4]
  viability at 40 µM: 118 ± 1.64%
[5]
  viability at 40 µM: 137 ± 1.61%
[6]
  viability at 40 µM: 150.6 ± 1.11%
[7]
  viability at 40 µM: 127 ± 3.34%

## O=C1COc2ccc(NC(=O)c3cccc(-c4cn(Cc5ccc(Br)cc5F)nn4)c3)cc2N1 [Compound 13l]
[2]; [10]
  IC50: > 100 µM
[2]; [11]
  IC50: 79.2 ± 6.11 µM
[2]
  viability at 40 µM: 57 ± 2.02%
[3]
  viability at 48 h, 40 µM: 101.5 ± 0.49%
[4]
  viability at 40 µM: 91.6 ± 2.21%
[5]
  viability at 40 µM: 119 ± 2.06%
[6]
  viability at 40 µM: 110 ± 5.15%
[7]
  viability at 40 µM: 105 ± 2.42%

## O=C1COc2ccc(NC(=O)c3cccc(-c4cn(-c5cc(Cl)ccc5F)nn4)c3)cc2N1 [Compound 14g]
[2]
  viability at 40 µM: 28.2 ± 0.55%
  inhibition at 40 µM: > 50%
[3]
  viability at 48 h, 40 µM: 103 ± 4.98%
[4]
  viability at 40 µM: 87.6 ± 1.3%
[5]
  viability at 40 µM: 75.3 ± 1.09%
[6]
  viability at 40 µM: 74.8 ± 1.72%
[7]
  viability at 40 µM: 45.5 ± 0.99%

## O=C1COc2ccc(NC(=O)c3cccc(-c4cn(-c5ccc(C(F)(F)F)cc5)nn4)c3)cc2N1 [Compound 14a]
[2]
  viability at 40 µM: 88.4 ± 7.15%
[3]
  viability at 48 h, 40 µM: 111.6 ± 0.81%
[4]
  viability at 40 µM: 103 ± 2.87%
[5]
  viability at 40 µM: 114 ± 1.46%
[6]
  viability at 40 µM: 110 ± 5.19%
[7]
  viability at 40 µM: 101 ± 3.09%

## O=C1COc2ccc(NC(=O)c3cccc(-c4cn(Cc5c(Cl)cccc5Cl)nn4)c3)cc2N1 [Compound 13n]
[2]; [10]
  IC50: 88.6 ± 18 µM
[2]; [11]
  IC50: 77 ± 6.21 µM
[2]
  viability at 40 µM: 55.6 ± 1.02%
[3]
  viability at 48 h, 40 µM: 104.7 ± 0.69%
[4]
  viability at 40 µM: 89.3 ± 1.41%
[5]
  viability at 40 µM: 129.4 ± 0.81%
[6]
  viability at 40 µM: 83.1 ± 1.96%
[7]
  viability at 40 µM: 122 ± 3.23%

## O=C1COc2ccc(NC(=O)c3cccc(-c4cn(Cc5ccc(Br)cc5)nn4)c3)cc2N1 [Compound 13a]
[2]
  viability at 40 µM: 105 ± 3.6%
[3]
  viability at 48 h, 40 µM: 110 ± 1.16%
[4]
  viability at 40 µM: 104 ± 2.08%
[5]
  viability at 40 µM: 109 ± 2.48%
[6]
  viability at 40 µM: 115 ± 4.01%
[7]
  viability at 40 µM: 107 ± 3.39%

## N#Cc1ccc(F)cc1Cn1cc(-c2cccc(C(=O)Nc3ccc4c(c3)NC(=O)CO4)c2)nn1 [Compound 13d]
[2]
  viability at 40 µM: 133 ± 1.67%
[3]
  viability at 48 h, 40 µM: 96.6 ± 2.6%
[4]
  viability at 40 µM: 120 ± 1.47%
[5]
  viability at 40 µM: 126 ± 1.71%
[6]
  viability at 40 µM: 135 ± 3.97%
[7]
  viability at 40 µM: 137 ± 1.49%

## COc1cc2ncnc(Nc3ccc(F)c(Cl)c3)c2cc1OCCCN1CCOCC1 [Gefitinib, reference compound]
[2]; A549, CCK-8
  activity on A549 cells (in words): effective activity on A549 cells
[2]
  viability at 40 µM: 31.1 ± 0.73%
[3]
  viability at 48 h, 40 µM: 82.11 ± 0.74%
[4]
  viability at 40 µM: 84.25 ± 0.32%
[5]
  viability at 40 µM: 55 ± 0.76%
[6]
  viability at 40 µM: 75.2 ± 1.66%
[7]
  viability at 40 µM: 63.73 ± 0.62%

## O=C1COc2ccc(NC(=O)c3cccc(-c4cn(-c5ccc(Br)cc5F)nn4)c3)cc2N1 [Compound 14f]
[2]
  viability at 40 µM: 39.6 ± 1.77%
  inhibition at 40 µM: > 50%
[3]
  viability at 48 h, 40 µM: 90.98 ± 0.38%
[4]
  viability at 40 µM: 79.8 ± 2.53%
[5]
  viability at 40 µM: 71.4 ± 1.66%
[6]
  viability at 40 µM: 80.62 ± 0.6%
[7]
  viability at 40 µM: 74.2 ± 1.07%

## COc1ccc(-c2nc3ccccc3c(=O)n2C/C=C/c2ccc(C(=O)CN3C(=O)COc4ccccc43)cc2)c(OC)c1OC [compound 3]
[8]
  GI50: 0.32 µM

## O=C1COc2ccc(NC(=O)c3cccc(-c4cn(Cc5cccc(C(F)(F)F)c5)nn4)c3)cc2N1 [Compound 13m]
[2]
  viability at 40 µM: 126 ± 1.9%
[3]
  viability at 48 h, 40 µM: 107.9 ± 0.77%
[4]
  viability at 40 µM: 126 ± 2.44%
[5]
  viability at 40 µM: 124 ± 3.41%
[6]
  viability at 40 µM: 144 ± 2.31%
[7]
  viability at 40 µM: 127 ± 1.71%

## O=C1COc2ccc(NC(=O)c3cccc(-c4cn(Cc5cc(F)c(F)c(F)c5)nn4)c3)cc2N1 [Compound 13c]
[2]; [10]
  IC50: > 100 µM
[2]; [11]
  IC50: 64 ± 6.77 µM
[2]
  viability at 40 µM: 63 ± 1%
[3]
  viability at 48 h, 40 µM: 101 ± 1.59%
[4]
  viability at 40 µM: 88.5 ± 1.16%
[5]
  viability at 40 µM: 110 ± 1.2%
[6]
  viability at 40 µM: 68.2 ± 3.35%
[7]
  viability at 40 µM: 91.4 ± 2.78%

## COc1c2n(cc(C(=O)Nc3cccc(-c4cn(-c5c(C)cc(C)cc5C)nn4)c3)c1=O)C[C@H]1OC[C@H](C)N1C2=O [compound 7]
[9]; concentration-dependent
  apoptosis, G2/M phase arrest, and DNA damage: induced
[9]
  IC50: 4.07 ± 0.09 µM

## O=C1COc2ccc(NC(=O)c3cccc(-c4cn(Cc5cc(Br)cc(Br)c5)nn4)c3)cc2N1 [Compound 13k]
[2]
  viability at 40 µM: 140.65 ± 0.11%
[3]
  viability at 48 h, 40 µM: 112 ± 1.63%
[4]
  viability at 40 µM: 135 ± 2.4%
[5]
  viability at 40 µM: 129 ± 2%
[6]
  viability at 40 µM: 152 ± 3.5%
[7]
  viability at 40 µM: 141 ± 1.94%

## O=C1COc2ccc(NC(=O)c3cccc(-c4cn(Cc5ccc(C(F)(F)F)cc5)nn4)c3)cc2N1 [Compound 13p]
[2]
  viability at 40 µM: 94.7 ± 6.71%
[3]
  viability at 48 h, 40 µM: 102 ± 4.05%
[4]
  viability at 40 µM: 104 ± 1.06%
[5]
  viability at 40 µM: 119 ± 1.7%
[6]
  viability at 40 µM: 120 ± 2.54%
[7]
  viability at 40 µM: 113 ± 1.67%

## O=C1COc2ccc(NC(=O)c3cccc(-c4cn(Cc5cccc(Cl)c5)nn4)c3)cc2N1 [Compound 13g]
[2]
  viability at 40 µM: 99.5 ± 3%
[3]
  viability at 48 h, 40 µM: 103.1 ± 0.72%
[4]
  viability at 40 µM: 109 ± 2.06%
[5]
  viability at 40 µM: 104 ± 3.8%
[6]
  viability at 40 µM: 89.8 ± 1.75%
[7]
  viability at 40 µM: 104.5 ± 0.28%

## O=C1COc2ccc(NC(=O)c3cccc(-c4cn(Cc5ccc(F)cc5Cl)nn4)c3)cc2N1 [Compound 13t]
[2]
  viability at 40 µM: 96.6 ± 2.07%
[3]
  viability at 48 h, 40 µM: 103 ± 2.67%
[4]
  viability at 40 µM: 97.2 ± 1.54%
[5]
  viability at 40 µM: 101 ± 3.53%
[6]
  viability at 40 µM: 114 ± 1.76%
[7]
  viability at 40 µM: 97.9 ± 2.53%
